Converted amounts (≈) assume the structure as drawn.
Key:
Bacillus anthracis DHFR = Bacillus anthracis DHFR (Bacillus anthracis, UniProt Q81R22); experiment: biochemical
[1] = tested on: Bacillus anthracis Sterne; experiment: microbe, parasite or virus in culture; assay type: cell-based; details: 16 h, read-out: MIC B. anthracis (ug/ml)
human DHFR = biological target: T1, human DHFR (Homo sapiens, UniProt P00374); experiment: biochemical
T1 sequence (P00374 1-187): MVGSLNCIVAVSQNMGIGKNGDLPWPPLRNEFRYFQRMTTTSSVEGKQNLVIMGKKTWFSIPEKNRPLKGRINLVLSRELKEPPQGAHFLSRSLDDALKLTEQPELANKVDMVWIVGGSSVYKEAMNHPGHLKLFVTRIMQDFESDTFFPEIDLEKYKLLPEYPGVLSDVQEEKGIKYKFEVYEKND

Bacillus anthracis DHFR, sequence (Q81R22 1-162): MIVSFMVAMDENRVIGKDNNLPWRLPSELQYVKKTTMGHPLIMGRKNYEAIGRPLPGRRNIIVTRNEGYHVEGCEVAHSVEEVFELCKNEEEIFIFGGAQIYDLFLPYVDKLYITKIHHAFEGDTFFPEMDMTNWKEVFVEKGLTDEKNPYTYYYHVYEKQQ

Row | Structure (SMILES) | IC50 (Bacillus anthracis DHFR) | MIC [1] | IC50 (human DHFR)
1 | CCCC1c2ccccc2C=NN1C(=O)/C=C/c1cc(Cc2cnc(N)nc2N)cc(OC)c1OC (stereo not shown) | 54 nM | 13 µg/mL (≈ 26.7 µM) | 110000 nM
2 | COc1cc(Cc2cnc(N)nc2N)cc(/C=C/C(=O)N2N=Cc3ccccc3C2C2CCCC2)c1OC (stereo not shown) | 200 nM | ≤ 26 µg/mL | > 21000 nM
3 | COc1cc(Cc2cnc(N)nc2N)cc(OC)c1OC [Trimethoprim, reference compound] | – | > 2000 µg/mL | –
4 | COc1cc(Cc2cnc(N)nc2N)cc(/C=C/C(=O)N2N=Cc3ccccc3C2C2CCCCC2)c1OC (stereo not shown) | 260 nM | ≤ 13 µg/mL | –
5 | CCCCC1c2ccccc2C=NN1C(=O)/C=C/c1cc(Cc2cnc(N)nc2N)cc(OC)c1OC (stereo not shown) | 170 nM | ≤ 13 µg/mL | –
6 | COc1cc(Cc2cnc(N)nc2N)cc(/C=C/C(=O)N2N=Cc3ccccc3C2c2ccccc2)c1OC.CS(=O)(=O)O (stereo not shown) | 46 nM | 26 µg/mL | –
7 | COc1cc(Cc2cnc(N)nc2N)cc(/C=C/C(=O)N2N=Cc3ccccc3C2c2ccccc2)c1OCCN1CCOCC1 (stereo not shown) | 170 nM | ≤ 32 µg/mL | > 16000 nM
